For series [1], the system named is NF-κB luciferase reporter in Ad5-wt-hERα infected HAECT-1 cells. Nature of the series: ER/NF-κB-luc: IL-1β induced NF-κB luciferase reporter in Ad5-wt-ER infected HAECT-1 cells. Type of series: cell-based. Conditions: Homo sapiens; for IC50: HAECT1, Ad5-wt-ER infected HAECT-1 cells, IL-1β, read-out: ER/NF-KB-luc IC50; for Emax: HAECT1, efficacy relative to the maximal inhibition observed with E2, read-out: ER/NF-KB-luc % Eff*. The protocol:
(§1) T-175 flasks of 100% confluent HAECT-1 cells (immortalized human aortic endothelial cells) were washed with 8 ml of HBSS (HEPES buffered saline solution) and infected for four hours with 6 ml of a 1:10 dilution of Ad5-wt-hERα virus (an adenovirus transfection vector that mediates CMV promoter driven expression of human ERα) in phenol red free Endothelial Cell Basal medium (Clonetics, San Diego Calif., Catalog # CC-3129) containing 0.25% bovine serum albumin (EBM-BSA). After four hours, cells were washed with EBM-BSA and incubated overnight in the same medium. Following overnight incubation, cells were washed with EBM-BSA and infected for 2 hours with 6 ml of a 1:10 dilution of Ad5-3×(NFκB).Luc virus (Adenovirus luciferase expression vector driven by 3 repeats of the MHC NFκb site 5′ to the thymidine kinase promoter) in EBM-BSA. After two hours, cells were washed and incubated at 34° C. for 1 hour. Cells were then washed, trypsinized, counted and resuspended in 95% FBS/5% dimethylsulfoxide at a concentration of 4×10^6 cells/ml, frozen as 1 or 5 ml aliquots in cryo-vials and stored at −150° C. Control (no ER infection) cells were processed as above without Ad5-wt-hERα virus infection.
(§2) ERα infected HAECT-1 cells or control cells were thawed, diluted 42× in warm EBM-BSA, plated into 96-well plates at 0.1 ml/well and incubated for 4 h at 34° C. Test compounds were added to the cells as 2× stocks in EBM-BSA containing 2 ng/ml IL-1β (R&D Systems) and plates were returned to the incubator (34° C.). After 15-20 h, 100 μl aliquots of media were removed from the cells and assayed for IL-6 content using a BioSource human IL-6 ELISA Kit. Cells were subsequently washed with 300 μl of Dulbecco's phosphate buffered saline and lysed in 50 μl of Cell Culture Lysis Reagent (Promega). Luciferase was determined on a Wallac Victor^2 Luminometer (Gaithersburg, Md.) using 10 μl of lysate and mixing with 100 μl of Promega Luciferase Assay reagent. Creatine kinase was determined from the rate of increase in A340 following addition of 100 μl of CK assay reagent (Sigma, cat. No 47-10) to the remainder of the cell lysate.
(§3) For IC50 and EC50 calculations, mean IL-6, luciferase or CK values versus log10 of the compound concentration were fitted to a four parameter logistic equation. The IC50/EC50 value, ‘Hill slope’, upper and lower limits of the curve were iteratively estimated.
Background: A reporter such as luciferase makes a cellular process visible.

For series [2], the system named is creatine kinase expression in Ad5-wt-hERα infected HAECT-1 cells. In words: ER/CK: creatine kinase expression in Ad5-wt-ER infected HAECT-1 cells. Type of series: cell-based, human. Conditions: for EC50: Homo sapiens; for ER/CK % Eff*: efficacy relative to the maximal stimulation observed with E2. The protocol: as §1, §2, §3
Series [3] has as its system IL-6 expression in Ad5-wt-hERα infected HAECT-1 cells. Nature of the series: ER/IL-6: IL-6 expression (ELISA) in Ad5-wt-ER infected HAECT-1 cells. Type of series: cell-based, human. Conditions: for IC50: IL-1β. The protocol:
as §1, §2, §3
Background: In an ELISA, binding on a coated surface is turned into a signal by an enzyme label.

[4] abbreviates: Ad5-wt-ER infected HAECT-1 cells.
[5] abbreviates: HAECT1, read-out: ER/CK EC50 (nM).

Where two headings read alike, the source gives them in different places.

Broadly, the melting point is the temperature of the solid-liquid transition. On to `CCCn1nc(C(=O)c2cccc(O)c2)c2cccc(C(F)(F)F)c21` [Example 11, (3-hydroxyphenyl)[1-propyl-7-(trifluoromethyl)-1H-indazol-3-yl]methanone], for which the melting point was 118 °C. Further, in series [1], the IC50 is 198 nM and the Emax is 82%. Besides, in series [2] (setting [4]), the “ER/CK EC50 (nM)” value is given as “ia”.
The compound `O=C(c1ccc(O)cc1)c1nn(C2CCCC2)c2c(C(F)(F)F)cccc12` [Example 8, [1-cyclopentyl-7-(trifluoromethyl)-1H-indazol-3-yl](4-hydroxyphenyl)methanone] gave a melting point of 225 to 226 °C. In series [1], the IC50 is 94 nM and the Emax stood at 87%. The “ER/CK EC50 (nM)” value in series [2] (setting [4]) is “ia”.
As to `CC(C)=CCn1nc(C(=O)c2cccc(O)c2)c2ccccc21`, the melting point was 92 to 94 °C.
The compound `CC(C)Cn1nc(C(=O)c2cccc(O)c2)c2ccccc21` [Example 17, (3-hydroxyphenyl)(1-isobutyl-1H-indazol-3-yl)methanone] displayed a melting point of 108 to 110 °C. For the same compound, in series [1], the IC50 worked out at 710 nM and the Emax turned out to be 100%. In addition, the EC50 in series [2] (setting [5]) was found to be 1570 nM. In series [2], the “ER/CK % Eff*” value came to 51%.
Regarding `CC(C)n1nc(C(=O)c2cccc(O)c2)c2cccc(C(F)(F)F)c21` [Example 13, (3-hydroxyphenyl)[1-isopropyl-7-(trifluoromethyl)-1H-indazol-3-yl]methanone], the melting point stood at 145 °C. Further, in series [1], the IC50 turned out to be 63 nM and the Emax worked out at 85%. In series [2] (setting [4]), the “ER/CK EC50 (nM)” value is reported as “ia”.
With `C[C@]12CC[C@@H]3c4ccc(O)cc4CC[C@H]3[C@@H]1CC[C@@H]2O` [Example E2, 17β-estradiol, reference compound], the IC50 in series [1] is about 1 nM; in series [3] (setting [4]) it was 1.7 nM; in series [3] (Homo sapiens, HAECT1, Ad5-wt-ER infected HAECT-1 cells), about 1 nM. Moreover, the Emax in series [1] was found to be 100%. Also, in series [3] (efficacy relative to the maximal inhibition observed with E2), the “ER/IL-6 % Eff” value was 100%. Besides, the EC50 in series [2] (HAECT1, Ad5-wt-ER infected HAECT-1 cells, read-out: ER/CK EC50) came out at 5.8 nM. Moreover, the “ER/CK % Eff*” value in series [2] is on record as 100%.
As to `CC(C)n1nc(C(=O)c2ccc(O)cc2)c2cccc(C(F)(F)F)c21` [Example 9, (4-hydroxyphenyl)[1-isopropyl-7-(trifluoromethyl)-1H-indazol-3-yl]methanone], in series [1], the IC50 was found to be 107 nM and the Emax is 80%. Also, the “ER/CK EC50 (nM)” value in series [2] (setting [4]) is given as “ia”.
The corresponding values for `O=C(c1cccc(O)c1)c1n[nH]c2c(C(F)(F)F)cccc12` [Example 10, (3-hydroxyphenyl)[7-(trifluoromethyl)-1H-indazol-3-yl]methanone] are 593 nM, 88% and “ia”.
`CC(C)n1nc(C(=O)c2cccc(O)c2)c2ccccc21` [Example 5, (3-hydroxyphenyl)(1-isopropyl-1H-indazol-3-yl)methanone]: in series [1], the IC50 came to 1070 nM and the Emax came to 83%. In addition, in series [2] (setting [5]), the EC50 was found to be 1790 nM. The “ER/CK % Eff*” value in series [2] was determined as 55%.
For `O=C(c1ccc(O)cc1)c1n[nH]c2c(C(F)(F)F)cccc12` [Example 7, (4-hydroxyphenyl)[7-(trifluoromethyl)-1H-indazol-3-yl]methanone], in series [1], the IC50 came to 1000 nM and the Emax was determined as 43%. For the same compound, the “ER/CK EC50 (nM)” value in series [2] (setting [4]) is reported as “ia”.
In the case of `O=C(c1cccc(O)c1)c1nn(C2C=CCCC2)c2ccccc12` (stereo not drawn) [Example 20, (1-cyclohex-2-en-1-yl-1H-indazol-3-yl)(3-hydroxyphenyl)methanone], the melting point was 140 to 141 °C. In series [1], the IC50 is 155 nM and the Emax is 87%. In addition, the “ER/CK EC50 (nM)” value in series [2] (setting [4]) was “ia”.
For the compound `O=C(c1cccc(O)c1)c1nn(C2CCCC2)c2c(C(F)(F)F)cccc12` [Example 12, [1-cyclopentyl-7-(trifluoromethyl)-1H-indazol-3-yl](3-hydroxyphenyl)methanone], the melting point was 152 °C. In series [1], the IC50 came out at 54 nM and the Emax came out at 73%. In series [2] (setting [5]), the EC50 is 139 nM. Further, in series [2], the “ER/CK % Eff*” value is given as 32%.
Turning to `COc1cccc(-n2nc(C(=O)c3cccc(O)c3)c3ccccc32)c1` [Example 22, (3-hydroxyphenyl)[1-(3-methoxyphenyl)-1H-indazol-3-yl]methanone], in series [1], the IC50 was 475 nM and the Emax was found to be 75%. The “ER/CK EC50 (nM)” value in series [2] (setting [4]) is “ia”.
Consider `C=C(C)Cn1nc(C(=O)c2cccc(O)c2)c2ccccc21` [Example 14, (3-hydroxyphenyl)[1-(2-methylprop-2-enyl)-1H-indazol-3-yl]methanone], for which the melting point fell in the range of 75 to 78 °C. In series [1], the IC50 turned out to be 388 nM and the Emax came to 103%. Also, the “ER/CK EC50 (nM)” value in series [2] (setting [4]) is reported as “ia”.
As for `Oc1cccc(Cc2nn(C3CCCC3)c3ccccc23)c1` [Example 6, 3-[(1-cyclopentyl-1H-indazol-3-yl)methyl]phenol], in series [1], the IC50 amounted to 570 nM and the Emax worked out at 54%. The “ER/CK EC50 (nM)” value in series [2] (setting [4]) was “ia”.
Take `O=C(c1cccc(O)c1)c1c2ccccc2nn1-c1ccc(Br)cc1` [Example 23, [2-(4-bromophenyl)-2H-indazol-3-yl](3-hydroxyphenyl)methanone]: in series [1], the IC50 turned out to be 82 nM and the Emax came out at 79%. The “ER/CK EC50 (nM)” value in series [2] (setting [4]) is “ia”.
In turn, `C/C=C/Cn1nc(C(=O)c2cccc(O)c2)c2ccccc21` returned a melting point of 75 to 78 °C.
For `CCCn1nc(C(=O)c2cccc(O)c2)c2ccccc21` [Example 3, (3-hydroxyphenyl)(1-propyl-1H-indazol-3-yl)methanone], in series [1], the IC50 is 722 nM and the Emax amounted to 70%. The EC50 in series [2] (setting [5]) amounted to 2640 nM. Moreover, the “ER/CK % Eff*” value in series [2] turned out to be 35%.
`C=CCn1nc(C(=O)c2cccc(O)c2)c2ccccc21` [Example 18, (1-allyl-1H-indazol-3-yl)(3-hydroxyphenyl)methanone]: in series [1], the IC50 was 1240 nM and the Emax was found to be 92%. The “ER/CK EC50 (nM)” value in series [2] (setting [4]) is on record as “ia”.
For the compound `O=C(c1cccc(O)c1)c1nn(Cc2ccccc2)c2ccccc12` [Example 19, (1-benzyl-1H-indazol-3-yl)(3-hydroxyphenyl)methanone], in series [1], the IC50 is 409 nM and the Emax stood at 92%. Further, the “ER/CK EC50 (nM)” value in series [2] (setting [4]) is listed as “ia”.
Compound `Oc1cccc(Cc2n[nH]c3ccccc23)c1` [Example 1, 3-[(1H-indazol-3-yl)methyl]phenol] showed a melting point of 170 to 172 °C.

Values taken from patent publication US7598286B2, “[(1H-indazol-3-yl)methyl]phenols and (hydroxyphenyl)(1H-indazol-3-yl)methanones” (Wyeth, priority 2004, dated 2009).
